Source: PubChem BioAssay (NCI)
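A five-concentration, 48-hour dose response in 96-well plates underlies each endpoint, interpolated linearly between surrounding concentrations. GI50 marks 50% less growth. TGI denotes the concentration required for complete inhibition of growth.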

Assays:
Test in all cases: NCI-60 cell line screen, 48 h
SF-539 CNS = system: SF-539 CNS
CAKI-1 renal = system: CAKI-1 renal
786-0 renal = system: 786-0 renal
UACC-62 melanoma = system: UACC-62 melanoma
UACC-257 melanoma = system: UACC-257 melanoma
MCF7 breast = system: MCF7 breast
OVCAR-8 ovarian = system: OVCAR-8 ovarian
M14 melanoma = system: M14 melanoma
COLO 205 colon = system: COLO 205 colon
HOP-62 NSCLC = system: HOP-62 NSCLC

In the case of `C/C=C1/CC(C)C(C)(O)C(=O)OCC2C(O)CN3CCC(OC1=O)C23` (centres undefined), the TGI (SF-539 CNS) is reported as greater than 100 µM, the TGI (CAKI-1 renal) is reported as greater than 100 µM and the TGI (786-0 renal) is reported as greater than 100 µM. For the same compound, the TGI (UACC-62 melanoma) was greater than 100 µM, the TGI (UACC-257 melanoma) was greater than 100 µM and the TGI (MCF7 breast) was greater than 100 µM. For the same compound, the TGI (OVCAR-8 ovarian) was greater than 100 µM, the TGI (M14 melanoma) was greater than 100 µM and the TGI (COLO 205 colon) was greater than 100 µM. For the same compound, the TGI (HOP-62 NSCLC) was greater than 100 µM.

In the case of `CC1=CC(C)(C)NN1C1=NS(=O)(=O)c2ccccc2N1C`, the TGI (SF-539 CNS) is reported as greater than 100 µM, the TGI (CAKI-1 renal) is reported as greater than 100 µM and the TGI (786-0 renal) is reported as greater than 100 µM. For the same compound, the TGI (UACC-62 melanoma) was greater than 100 µM, the TGI (UACC-257 melanoma) was greater than 100 µM and the TGI (MCF7 breast) was greater than 100 µM. It also gave a TGI (OVCAR-8 ovarian) greater than 100 µM, a TGI (M14 melanoma) greater than 100 µM and a TGI (COLO 205 colon) greater than 100 µM. It also gave a TGI (HOP-62 NSCLC) greater than 100 µM.

Work on `CC(=O)[C@H]1CCC/C=C/[C@@H]2C[C@H](O)C[C@H]2[C@H](O)/C=C/C(=O)O1` yielded a GI50 (SF-539 CNS) of 1.01 µM, a TGI (SF-539 CNS) greater than 100 µM and a GI50 (CAKI-1 renal) of 0.645 µM. It also gave a TGI (CAKI-1 renal) greater than 23.3 µM, a GI50 (786-0 renal) of 0.193 µM and a TGI (786-0 renal) of 0.392 µM. It also gave a GI50 (UACC-62 melanoma) of 0.498 µM, a TGI (UACC-62 melanoma) greater than 100 µM and a GI50 (UACC-257 melanoma) of 0.332 µM. It also gave a GI50 (MCF7 breast) of 0.363 µM, a TGI (MCF7 breast) of 5.81 µM and a GI50 (OVCAR-8 ovarian) of 0.982 µM. It also gave a TGI (OVCAR-8 ovarian) greater than 100 µM, a GI50 (M14 melanoma) of 0.467 µM and a TGI (M14 melanoma) greater than 25.2 µM. The GI50 (COLO 205 colon) was 0.264 µM, the TGI (COLO 205 colon) was 0.631 µM and the GI50 (HOP-62 NSCLC) was 2.08 µM. For the same compound, the TGI (HOP-62 NSCLC) was greater than 30.2 µM.

`COc1cc(C2c3cc4c(cc3C(OC(=O)C[n+]3ccccc3)C3COC(=O)C23)OCO4)cc(OC)c1OC` (centres undefined) showed a GI50 (SF-539 CNS) of less than 0.0154 µM, a TGI (SF-539 CNS) of less than 0.0278 µM and a GI50 (CAKI-1 renal) of less than 0.0184 µM. It also gave a TGI (CAKI-1 renal) greater than 100 µM, a GI50 (786-0 renal) of less than 0.0183 µM and a TGI (786-0 renal) greater than 100 µM. It also gave a GI50 (UACC-62 melanoma) of 10.7 µM, a TGI (UACC-62 melanoma) greater than 100 µM and a GI50 (UACC-257 melanoma) greater than 100 µM. For the same compound, the TGI (UACC-257 melanoma) was greater than 100 µM, the GI50 (MCF7 breast) was less than 0.014 µM and the TGI (MCF7 breast) was greater than 100 µM. It also gave a GI50 (OVCAR-8 ovarian) of less than 0.021 µM, a TGI (OVCAR-8 ovarian) greater than 100 µM and a GI50 (M14 melanoma) of less than 0.017 µM. It also gave a TGI (M14 melanoma) greater than 100 µM, a GI50 (COLO 205 colon) of less than 0.0137 µM and a TGI (COLO 205 colon) of less than 0.0203 µM. The GI50 (HOP-62 NSCLC) was less than 0.0259 µM and the TGI (HOP-62 NSCLC) was greater than 100 µM.
